Each block holds one molecule with its values, some of them ahead of it.
Columns and labels:
[1] = target: T1, Aurora kinase B (Homo sapiens, UniProt Q96GD4); assay: Inhibition of full-length His-tagged recombinant aurora B (unknown origin) expressed in insect cells using biotinylated LRRWSLG substrate by scintillation proximity assay
[2] = system: HCT-116; assay: Antitumor activity against human HCT116 cells xenografted in mouse assessed as inhibition of tumor growth at 20 mg/kg, po qd for 10 days; format: functional; settings: HCT-116, po, 240 h, read-out: TGI
[3] = target: T1, Aurora kinase B; assay: Inhibition of aurora B in human MDA-MB-231 cells assessed as reduction in enzyme autophosphorylation incubated for 4 hrs by high-content immunofluorescence imaging; format: cell-based
[4] = target: T1, Aurora kinase B; assay: Inhibition of aurora B in human MDA-MB-231 cells assessed as reduction in phosphorylation of histone H3 on Ser10 incubated for 4 hrs by high-content immunofluorescence imaging; format: cell-based
[5] = system: HCT-116; assay: Antitumor activity against human HCT116 cells xenografted in mouse assessed as inhibition of tumor growth at 15 to 60 mg/kg, po; format: functional
[6] = target: T2, Aurora kinase A (Homo sapiens, UniProt O14965); assay: Inhibition of recombinant aurora 2 (unknown origin) expressed in Sf21 insect cells incubated for 60 mins using [biotin LRRWSLGLRRWSLGLRRWSLGLRRWSLG substrate and [gamma33P]ATP by beta plate counting method
[7] = target: T1, Aurora kinase B; assay: Inhibition of recombinant aurora B (unknown origin)
[8] = target: Aurora kinase B/Inner centromere protein (Homo sapiens) (UniProt Q96GD4+Q9NQS7)
Description: Inhibition of human Aurora B/INCENP assessed as dissociation half life pre-incubated for 30 mins before 5-FAM-PKAtide substrate addition and measured after 120 mins

[9] = Oral bioavailability in fasted monkey at 2 mg/kg administered as single dose by orogastric gavage by LC-MS/MS analysis; format: ADME, organism-based, Macaca mulatta; settings: rhesus monkey, in vivo
[10] = target: Aurora kinase C (Homo sapiens, UniProt Q9UQB9); assay: Inhibition of Aurora C kinase (unknown origin)
[11] = Half life in fasted dog at 2 mg/kg administered as single dose by orogastric gavage by LC-MS/MS analysis; format: ADME, organism-based, Canis lupus familiaris; settings: in vivo, po
[12] = Oral bioavailability in fasted mouse at 5 mg/kg administered as single dose by orogastric gavage by LC-MS/MS analysis; format: ADME, organism-based; settings: in vivo
[13] = Half life in fasted monkey at 2 mg/kg administered as single dose by orogastric gavage by LC-MS/MS analysis; format: ADME, organism-based, Macaca mulatta; settings: rhesus monkey, in vivo, po
[14] = Oral bioavailability in fasted rat at 5 mg/kg administered as single dose by orogastric gavage by LC-MS/MS analysis; format: ADME, organism-based; settings: in vivo
[15] = Half life in fasted mouse at 5 mg/kg administered as single dose by orogastric gavage by LC-MS/MS analysis; format: ADME, organism-based; settings: in vivo, po
[16] = Half life in fasted rat at 5 mg/kg administered as single dose by orogastric gavage by LC-MS/MS analysis; format: ADME, organism-based; settings: in vivo, po
[17] = Oral bioavailability in fasted dog at 2 mg/kg administered as single dose by orogastric gavage by LC-MS/MS analysis; format: ADME, organism-based, Canis lupus familiaris; settings: in vivo
[18] = system: HCT-116; assay: Antitumor activity against human HCT116 cells xenografted in mouse assessed as inhibition of tumor growth at 20 mg/kg; format: functional; settings: read-out: TGI
[19] = Half life in tumor of mouse xenografted with human HCT116 cells at 15 to 20 mg/kg; format: ADME, organism-based, Neoplasm
[20] = system: HCT-116; assay: Antitumor activity against human HCT116 cells xenografted in mouse assessed as inhibition of tumor growth at 15 mg/kg; format: functional; settings: read-out: TGI
[21] = Growth inhibition of in human myeloma cells; format: functional, cell-based
[22] = Inhibition of Xenopus laevis aurora B (60 to 361 residues)/INCENP
[23] = target: T2, Aurora kinase A; assay: Inhibition of Aurora A kinase (unknown origin)

T1 sequence (Q96GD4 whole entry): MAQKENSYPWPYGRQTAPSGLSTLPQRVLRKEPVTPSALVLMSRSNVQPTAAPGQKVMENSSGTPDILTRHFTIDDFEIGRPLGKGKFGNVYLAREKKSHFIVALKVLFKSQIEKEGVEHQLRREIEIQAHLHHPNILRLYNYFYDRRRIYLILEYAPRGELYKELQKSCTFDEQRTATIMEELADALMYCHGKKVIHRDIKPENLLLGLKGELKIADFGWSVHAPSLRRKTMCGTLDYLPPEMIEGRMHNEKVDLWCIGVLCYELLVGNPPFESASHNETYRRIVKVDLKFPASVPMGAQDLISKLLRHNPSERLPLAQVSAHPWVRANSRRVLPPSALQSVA
T2 sequence (O14965 whole entry): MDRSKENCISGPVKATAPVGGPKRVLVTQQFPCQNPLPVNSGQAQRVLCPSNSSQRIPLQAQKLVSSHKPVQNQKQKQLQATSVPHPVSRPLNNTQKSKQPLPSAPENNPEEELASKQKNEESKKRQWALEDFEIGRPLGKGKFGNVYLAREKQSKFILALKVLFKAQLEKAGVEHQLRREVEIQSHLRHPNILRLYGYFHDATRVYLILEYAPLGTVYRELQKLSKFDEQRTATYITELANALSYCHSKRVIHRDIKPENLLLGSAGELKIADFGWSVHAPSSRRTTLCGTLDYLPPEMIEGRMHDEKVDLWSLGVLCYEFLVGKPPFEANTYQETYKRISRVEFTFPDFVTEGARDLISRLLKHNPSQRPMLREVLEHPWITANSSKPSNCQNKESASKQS
Aurora kinase C, sequence (Q9UQB9 whole entry): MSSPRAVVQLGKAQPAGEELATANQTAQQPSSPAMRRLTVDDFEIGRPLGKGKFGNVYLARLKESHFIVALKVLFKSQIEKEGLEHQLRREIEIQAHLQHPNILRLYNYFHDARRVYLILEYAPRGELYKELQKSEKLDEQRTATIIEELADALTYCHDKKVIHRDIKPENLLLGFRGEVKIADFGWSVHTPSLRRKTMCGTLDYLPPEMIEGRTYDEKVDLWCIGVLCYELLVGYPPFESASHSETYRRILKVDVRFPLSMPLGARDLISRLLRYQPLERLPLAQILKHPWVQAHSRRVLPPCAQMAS

Structure (SMILES): CCc1cccc(CC)c1NC(=O)N1Cc2[nH]nc(NC(=O)c3ccc(N4CCN(C)CC4)cc3)c2C1 [PHA-680632]
- TGI [5]: 70%

Structure (SMILES): COc1cc2c(Nc3ccc(C(=O)Nc4ccccc4)cc3)ncnc2cc1O
- IC50 [6]: 0.06 µM
- IC50 [7]: 0.041 µM

Structure (SMILES): CCn1cc(-c2ccnc3[nH]c(-c4cccc(CN(C)C)c4)cc23)c(-c2ccc(NC(=O)N(C)C)cc2)n1
- T1/2 [8]: 8 h

Structure (SMILES): Cc1cc(Nc2cc(N3CCN(C)CC3)nc(/C=C/c3ccccc3)n2)n[nH]1 [ENMD-2076]
- IC50 [21]: 2.99 to 7.06 µM

Structure (SMILES): O=C1c2[nH]c3cc(-c4ccco4)nn3c(=O)c2CN1Cc1ccccc1
- IC50 [23]: 0.56 µM

Second part, led by results:

- IC50 [1]: 0.005 µM
- IC50 [3]: 0.011 µM
- IC50 [4]: 0.05 µM
Structure (SMILES): CC(=O)NCC(=O)N1[C@@H]2CC[C@H]1c1ccc(Nc3ncc(C(F)(F)F)c(NC4CCC4)n3)cc12 [PF-03814735]
- inhibition in vivo at 20 mg/kg [2]: ≤ 50%

- bioavailability [9]: 31 to 107%
- IC50 [10]: 0.001 µM
- half-life [11]: 0.6 to 2.4 h
- bioavailability [12]: 31 to 107%
- half-life [13]: 0.6 to 2.4 h
- bioavailability [14]: 31 to 107%
- half-life [15]: 0.6 to 2.4 h
- half-life [16]: 0.6 to 2.4 h
- IC50 [7]: 0.004 µM
- bioavailability [17]: 31 to 107%
Structure (SMILES): Cc1csc(-c2nnc(Nc3ccc(Oc4ncccc4-c4ccnc(N)n4)cc3)c3ccccc23)c1 [AMG-900]

- half-life [19]: 2.5 h
Structure (SMILES): O=C(Nc1c[nH]nc1-c1nc2ccc(CN3CCOCC3)cc2[nH]1)NC1CC1 [AT-9283]
- inhibition in vivo at 20 mg/kg [18]: 76%
- inhibition in vivo at 15 mg/kg [20]: 67%

- IC50 [22]: 0.25 µM
Structure (SMILES): CCS(=O)(=O)Nc1ccc2c(c1)/C(=C(/Nc1ccc(CN3CCCCC3)cc1)c1ccccc1)C(=O)N2 [HESPERADIN]

Source: ChEMBL document CHEMBL4265875, “A comprehensive review on Aurora kinase: Small molecule inhibitors and clinical trial studies” (Eur J Med Chem, 2017)
